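Results reflect a 48-hour exposure of cells in 96-well plates to compound at five concentrations. GI50 = concentration required for 50% inhibition of growth.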 The source made the active and inactive calls. Rule as the data show it: active = GI50 up to about 1.1 µM and inactive = higher.
Tests used:
Assay in all cases: growth of human tumour cells (NCI), 48 h
[1] = test system: LOX IMVI
[2] = test system: SK-OV-3
[3] = test system: SK-MEL-5
[4] = test system: UACC-257
[5] = test system: A498
[6] = test system: SW-620
[7] = test system: NCI-H226
[8] = test system: T47D
[9] = test system: K562
[10] = test system: SF-295
[11] = test system: SNB-19
[12] = test system: DU-145
[13] = test system: NCI-H23
[14] = test system: NCI-H460
[15] = test system: MOLT-4
[16] = test system: UO-31
[17] = test system: 786-0
[18] = test system: HCC 2998
[19] = test system: RPMI-8226
[20] = test system: NCI/ADR-RES
[21] = test system: SN12C
[22] = test system: RXF 393
[23] = test system: UACC-62
[24] = test system: SNB-75
[25] = test system: PC-3
[26] = test system: ACHN
[27] = test system: HCT-116
[28] = test system: M14
[29] = test system: MDA-MB-435
[30] = test system: MDA-MB-231
[31] = test system: OVCAR-3
[32] = test system: HL-60
[33] = test system: MDA-N
[34] = test system: MCF7
[35] = test system: OVCAR-8
[36] = test system: HCT-15
[37] = test system: OVCAR-4
[38] = test system: SK-MEL-2
[39] = test system: COLO 205
[40] = test system: NCI-H522
[41] = test system: EKVX
[42] = test system: Hs-578T
[43] = test system: KM12
[44] = test system: CAKI-1
[45] = test system: SF-539
[46] = test system: HOP-92
[47] = test system: SK-MEL-28
[48] = test system: BT-549
[49] = test system: SR
[50] = test system: SF-268
[51] = test system: HOP-62
[52] = test system: A549
[53] = test system: OVCAR-5
[54] = test system: TK-10
[55] = test system: CCRF-CEM
[56] = test system: U-251
[57] = test system: HT-29
[58] = test system: IGROV-1

Compound: COc1ccc(C(=O)c2ccc(-n3c4ccccc4c4ccc5c(c43)C(=O)C=CC5=O)cc2)cc1
- GI50 [1]: 1250 nM (inactive)
- GI50 [2]: 13700 nM (inactive)
- GI50 [3]: 4270 nM (inactive)
- GI50 [4]: 2540 nM (inactive)
- GI50 [5]: 1580 nM (inactive)
- GI50 [6]: 1000 nM (active)
- GI50 [7]: 17300 nM (inactive)
- GI50 [8]: 1060 nM (active)
- GI50 [9]: 676 nM (active)
- GI50 [10]: 5430 nM (inactive)
- GI50 [11]: 4190 nM (inactive)
- GI50 [12]: 3100 nM (inactive)
- GI50 [13]: 1700 nM (inactive)
- GI50 [14]: 4610 nM (inactive)
- GI50 [15]: 348 nM (active)
- GI50 [16]: 520 nM (active)
- GI50 [17]: 586 nM (active)
- GI50 [18]: 5610 nM (inactive)
- GI50 [19]: 794 nM (active)
- GI50 [20]: 2620 nM (inactive)
- GI50 [21]: 1450 nM (inactive)
- GI50 [22]: 845 nM (active)
- GI50 [23]: 3030 nM (inactive)
- GI50 [24]: 3660 nM (inactive)
- GI50 [25]: 1500 nM (inactive)
- GI50 [26]: 800 nM (active)
- GI50 [27]: 920 nM (active)
- GI50 [28]: 2530 nM (inactive)
- GI50 [29]: 1390 nM (inactive)
- GI50 [30]: 1940 nM (inactive)
- GI50 [31]: 1140 nM (inactive)
- GI50 [32]: 495 nM (active)
- GI50 [33]: 2720 nM (inactive)
- GI50 [34]: 855 nM (active)
- GI50 [35]: 1810 nM (inactive)
- GI50 [36]: 1900 nM
- GI50 [37]: 2550 nM (inactive)
- GI50 [38]: 3880 nM (inactive)
- GI50 [39]: 2890 nM (inactive)
- GI50 [40]: 217 nM (active)
- GI50 [41]: 1860 nM (inactive)
- GI50 [42]: 1690 nM (inactive)
- GI50 [43]: 3680 nM (inactive)
- GI50 [44]: 164 nM (active)
- GI50 [45]: 2610 nM (inactive)
- GI50 [46]: 1990 nM (inactive)
- GI50 [47]: 2990 nM (inactive)
- GI50 [48]: 3210 nM (inactive)
- GI50 [49]: 1320 nM (inactive)
- GI50 [50]: 647 nM (active)
- GI50 [51]: 12500 nM (inactive)
- GI50 [52]: 3170 nM (inactive)
- GI50 [53]: 19500 nM (inactive)
- GI50 [54]: 1430 nM (inactive)
- GI50 [55]: 367 nM (active)
- GI50 [56]: 1690 nM (inactive)
- GI50 [57]: 1060 nM (active)
- GI50 [58]: 2610 nM (inactive)

Reference: ChEMBL document CHEMBL1201862, “PubChem BioAssay data set” (2004)
